Results: article PMC5913603, “Structure–activity relationships of strigolactones via a novel, quantitative in planta bioassay” (Journal of Experimental Botany, 2018)
Like-named read-outs stand apart in the source and are kept apart here.

Key:
[1] = molecular target: T1, AtD14 fused to firefly luciferase (D14::LUC) (Arabidopsis thaliana, UniProt Q9SQR3); experiment: Luminometer (luciferase) assay: D14::LUC degradation in transgenic Arabidopsis seedlings; format: in vivo; conditions: for Activity in the luciferase assay at 1 μM: weaker than (+)-GR24; for D14 degradation in the luciferase assay: 0.01–100 μM range, racemic mixtures
T1 construct: a pDONOR207 carrying the D14 promoter fused to the D14 CDS; expressed in transfected cells
T1 sequence (Q9SQR3 1-267): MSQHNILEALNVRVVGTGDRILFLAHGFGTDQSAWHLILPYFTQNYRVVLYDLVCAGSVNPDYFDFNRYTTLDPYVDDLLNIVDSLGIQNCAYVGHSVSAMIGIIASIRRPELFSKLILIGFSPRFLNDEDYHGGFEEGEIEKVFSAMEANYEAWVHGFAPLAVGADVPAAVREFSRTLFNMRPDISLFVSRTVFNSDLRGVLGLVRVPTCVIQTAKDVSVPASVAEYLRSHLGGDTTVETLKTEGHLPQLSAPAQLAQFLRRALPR
Method: A binary D14p::D14::LUC vector was obtained by LR-recombination (Invitrogen) of a pDONOR207 carrying the D14 promoter fused to the D14 CDS ([Chevalier et al., 2014]) in pGWB435 ([Nakagawa et al., 2007]). Transgenic D14::D14::LUC Arabidopsis plants were generated by agroinfiltration of Col-0 plants using the floral dip method ([Clough and Bent, 1998]). Seeds were surface-sterilized with an 8% aqueous solution of commercial bleach in distilled water for 5 min and rinsed five times with sterile distilled water. Sterile seeds were plated on MS medium (pH 5.8) ([Murashige and Skoog, 1962]) without sucrose solidified with 1.2% Agar, and kept at 4 °C for 3 d (stratification). Seeds were then incubated for 7 d in a growth chamber at 25 °C and a photoperiod of 16 h light/8 h dark. SL analogues and mimics (Figs 1, 2) were accurately weighed and dissolved in acetone at 10^–2 M. Five different concentrations (10^–4 M, 10^–5 M, 10^–6 M, 10^–7 M, 10^–8 M) were prepared by 1:10 serial dilutions in liquid MS medium, together with blank controls containing corresponding water and acetone volumes in the medium. D-Luciferin (potassium salt) stock was prepared at 25 mg ml^–1 in DMSO, aliquoted and stored at –80 °C until use; all other solutions were prepared just before the assay. Using tweezers, 7-d-old Arabidopsis seedlings were placed in a 96-well microtiter plate with their cotyledons facing up (one seedling per well, in 170 µl of liquid MS medium), and 15 µl of luciferin (0.125 mg ml^–1, diluted 1:200 in MS from stock) was added to each well, corresponding to 1.875 µg. The plate was covered with a transparent film with a hole poked above each well to allow for gas exchange. Measurements were taken every 15 min in a multimode reader (LB942 Tristar2 S, Berthold Technologies) for the following 24 h; the signal was allowed to stabilize for 2–3 h in the light before treatments were started by adding 15 µl per well of the different SLs in MS medium, thus reaching a final volume in each well of 200 µl and 9.4 µg ml^– of luciferin. Appropriate blank controls were added as well. Each treatment was applied to a minimum of 16 wells (seedlings), each of which was measured individually over time. The percentage efficacy of each compound molecule was calculated 6 h after treatment as a function of the decrease in D14::LUC-emitted luminescence with respect to (+)-GR24 1 µM (i.e. GR24^5DS), assuming that the latter, minus the drift of the corresponding blank control, had 100% efficacy. For calibration purposes, SL analogues that had already been characterized, namely (±)-ST23b, (±)-EGO10, and (±)-EDOT ([Prandi et al., 2011]), were tested across the same concentration range, along with (±)-strigol (Chiralix, NL). The half maximal-effective concentration (EC50) for (+)-GR24 was calculated by linear regression fitting of the data (n=5, with at least three individual seedlings and values being pooled for each replicate) at the different concentrations, minus the values for acetone-treated samples (negative controls) and normalized in relation to (+)-GR24 0.01 μM, which was set to 0%. Confidence intervals at 95% were used to express errors of the means.
D14 is a target for proteasome-dependent destruction upon interaction with its ligand(s), which explains why fluorescence of D14::GFP fusion proteins is quenched upon SL treatment in transgenic Arabidopsis ([Chevalier et al., 2014]). We exploited this molecular network to implement a quantitative activity assay that inversely correlated luminescence to perception of SL-related molecules in transgenic Arabidopsis expressing D14::LUC under the control of the D14 endogenous promoter. […] We then used the assay to test various SLs in the same range, namely strigol as an example of natural SLs; ST23b, EGO10, and EDOT (Fig. 1, all used as rac mixtures) as examples of active SL analogues; and the new set of SL-D-lactams rac-1–9 (Fig. 2).
Fig. 4. Luciferase assay. […]

[2] = tested on: Phelipanche aegyptiaca seeds; experiment: Germination-inducing activity on parasitic seeds; format: in vivo; conditions: for Fold lower potency than rac-GR24 (germination): compared with rac-GR24; for Concentration at which high germination activity was shown: high activity only at this concentration, germination normalized to rac-GR24 0.1 μM
Method: Seeds of Phelipanche aegyptiaca were collected from field-grown tomato in the West Galilee region of Israel. The seeds were stored in glass vials in the dark at room temperature until their use in germination tests. For the preparation of test solutions, the compound to be tested was weighed out very accurately, dissolved in acetone at 10^–2 M and then diluted with sterile distilled water to the desired concentrations. All solutions were prepared just before use. Seeds were surface-sterilized and preconditioned as described by [Bhattacharya et al. (2009)]. Briefly, after exposure for 5 min to 50% (v/v) aqueous solutions of commercial bleach (2% hypochlorite), seeds were rinsed with sterile distilled water. For preconditioning, seeds were placed on glass fibre filter discs using a sterile toothpick (approximately 50 seeds per disc); the glass fibre discs were placed on two filter paper discs, wetted with sterile distilled water, and incubated at 25 °C in the dark for 6 d. The preconditioned seeds were then allowed to dry completely in a laminar flow cabinet, after which they were treated with each compound at five different concentrations: 10^–5 M, 10^–6 M, 10^–7 M, 10^–8 M, and 10^–9 M. Their germination rate was evaluated under a stereomicroscope 7 d after the beginning of the treatment. For each concentration, at least 250 seeds were scored; synthetic SL rac-GR24 was included as a positive control across the same range of concentrations, while a solution of 0.001% acetone in sterile distilled water was included as a negative control. Seeds were scored as germinated if the radicle protruded through the seed coat 1 week after treatment. Germination values were normalized to those of rac-GR24 at 10^–7 M.
Fig. 3. Germination-inducing activity on Phelipanche aegyptiaca seeds of rac-1–9 and of strigol, ST23b, EGO10, and EDOT at different concentrations, compared to rac-GR24 0.1 μM as a positive control and to acetone as a negative control. […] The x-axis indicates the range of concentrations. Data are means (±SD) of n>250 seeds. Confidence intervals at 95% are used to express errors of the means. The data for rac-1–9 are indicated by ‘D-lactams’.

[3] = Chemical stability in aqueous solutions, degradation followed by HPLC; format: physicochemical
Method: The compounds were first dissolved in methanol (30%) or acetonitrile (50%) and then diluted to the final concentrations with water. The time-course of degradation was monitored by HPLC using an Agilent Technologies HPLC chromatograph 1200 Series equipped with a photo-diode array (PDA) detector, a binary-gradient high-pressure pump, and an automatic sampler. The column used was a LiChroCART® 125-4 LiChrospher® 100 RP-18 (5 μm, Merck Millipore) maintained at 25 °C. The solvents were (A) water + 0.1% formic acid and (B) acetonitrile, and the flow rate was 0.8 ml min^–1. The initial mobile phase, 95% A / 5% B, was held for 3 min and then ramped linearly to 100% B at 23 min and held for 5 min before resetting to the original conditions. The sample injection volume was 10 μl. PDA detection was by absorbance in the 200–600-nm wavelength range. Peak detection was at the optimum wavelength (254 nm) and peak areas were used for quantification. Initial and subsequent measurements of peak area attributable to the tested compound were used to fit exponential half-life curves and to calculate first-order rate constants. Stability data allowed for calculation of the time in hours for half of the tested compound to be hydrolysed (t1/2).
Natural and synthetic SLs are rather sensitive to hydrolysis at pH 7 and are readily decomposed through the cleavage of the D-ring at pH 9.38 ([Vurro et al., 2016]). Therefore, differences in activity among SL analogues may be attributed to their instability in the aqueous medium. In order to address this point, the stability in aqueous solutions of the newly synthesized SL-D-lactams was tested, and compared to the (+)-GR24 standard ([Kannan and Zwanenburg, 2014]; [Halouzka et al., 2018]). Two different conditions were considered, a 30% solution of MeOH in water and a 1:1 solution of acetonitrile in water. As expected, stability in MeOH was highly compromised for all compounds, but to a greater extent for analogues showing both the Michael acceptor function (enol ether bridge) and an unprotected N in the D-lactam ring, as for rac-3, rac-4, rac-5, and rac-7 (Table 1): after a few hours 50% of the compounds were degraded. This was not surprising from a chemical point of view, as the functional group in SL-D-lactams is an aminal, which is more prone to hydrolysis than the acetal of the natural SL skeleton. […] For rac-5, the NH compound in the EGO10 family, the half-life dropped to 2 h.

[4] = GraphPad fit, normalized with low acetone control
[5] = aqueous acetonitrile solution in HPLC vials, pH 6.7, 1:1 acetonitrile:water, 21 °C, pH 6.7, extrapolated from plots of peak area versus time, read-out: Half-life (t1/2, h) ACN:Water, 1:1 (converted)
[6] = aqueous methanol solution in HPLC vials, pH 6.7, 30% MeOH in water, 21 °C, pH 6.7, extrapolated from plots of peak area versus time, read-out: Half-life (t1/2, h) 30% MeOH (converted)

| Activity in the luciferase assay at 1 μM [1] | D14 degradation in the luciferase assay [1] | half-life at 200 μg ml^–1 [3, 5] [h] | half-life at 200 μg ml^–1 [3, 6] [h] | Structure (SMILES) | also measured |
| --- | --- | --- | --- | --- | --- |
|  |  |  |  | CC1=C[C@H](O/C=C2/C(=O)O[C@@H]3c4ccccc4C[C@H]23)OC1=O (racemic) [rac-GR24, reference compound] | Concentration of maximum germination activity ([2]; concentrations equal to or above): ≥ 0.1 µM |
| significant activity | induced high levels of D14 degradation |  |  | CC1=C[C@H](O/C=C2/C(=O)O[C@@H]3C4=C(C[C@H]23)[C@@H](O)CCC4(C)C)OC1=O [strigol] |  |
|  |  |  |  | CC1=C[C@H](O/C=C2/C(=O)O[C@@H]3c4ccccc4C[C@H]23)OC1=O [(+)-GR24] | half-life at 200 μg ml^–1 ([3]; buffer, pH 6.7, Half-life (t1/2, h) 30% MeOH): 80 h; half-life at 200 μg ml^–1 ([3]; buffer, pH 6.7, Half-life (t1/2, h) ACN:Water, 1:1): 3380 h; HILLSLOPE best-fit value (Table S1) [1, 4]: 0.4764; LOGIC50 best-fit value (Table S1) [1, 4]: -5.791; DC50 ([1]; read-out: EC50 (D14::LUC assay), 6 h after treatment, 0.01–100 μM, n=5): 1.62 µM; DC50 ([1]; read-out: EC50 best-fit value (Table S1), GraphPad fit, normalized with low acetone control): 1.62 µM |
|  |  | 528 | 190 | CC1=C[C@H](O/C=C2\Cc3c([nH]c4ccccc34)C2=O)N(C(=O)OC(C)(C)C)C1=O (racemic) [rac-6] |  |
| significant activity | induced high levels of D14 degradation |  |  | CC1=CC(O/C=C2/C(=O)c3c(c4cc(-c5ccc(N(C)C)cc5)ccc4n3C)C2C)OC1=O (centres unmarked) [ST23b] |  |
|  |  | 1080 | 230 | CC1=C[C@H](Oc2ccc(Br)cc2)N(C(=O)OC(C)(C)C)C1=O (racemic) [rac-8] |  |
|  |  | 720 | 110 | CC1=C[C@H](O/C=C2/C(=O)O[C@@H]3c4ccccc4C[C@H]23)N(C(=O)OC(C)(C)C)C1=O (racemic) [rac-1] | Fold lower potency than rac-GR24 (germination) [2]: ~ 100 fold; Concentration at which high germination activity was shown [2]: 10 µM |
|  |  | 140 | 21 | CC1=C[C@H](O/C=C2/C(=O)O[C@H]3c4ccccc4C[C@@H]23)N(C(=O)OC(C)(C)C)C1=O (racemic) [rac-2] | Concentration at which some germination activity could still be detected ([2]; tested 10^-9 to 10^-5 M): 1 µM |
|  |  | 17 | 11 | CC1=C[C@H](Oc2ccc(Br)cc2)NC1=O (racemic) [rac-7] | Fold lower potency than rac-GR24 (germination) [2]: ~ 100 fold; Concentration at which high germination activity was shown [2]: 10 µM |
| significant activity | induced high levels of D14 degradation |  |  | CC1=CC(O/C=C2/C(=O)c3c(c4cc(-c5scc6c5OCCO6)ccc4n3C)C2C)OC1=O (centres unmarked) [EDOT] |  |
|  |  | 24 | 2 | CC1=C[C@H](O/C=C2\Cc3c(n(C)c4ccccc34)C2=O)NC1=O (racemic) [rac-5] |  |

| Structure (SMILES) | Activity in the luciferase assay at 1 μM [1] | D14 degradation in the luciferase assay [1] | half-life at 200 μg ml^–1 [3, 5] [h] | half-life at 200 μg ml^–1 [3, 6] [h] | also measured |
| --- | --- | --- | --- | --- | --- |
| CC1=CC(O/C=C2\Cc3c(n(C)c4ccccc34)C2=O)OC1=O (centres unmarked) [EGO10] | significant activity | induced high levels of D14 degradation |  |  |  |
